The mass density is mass per unit of volume. By refractive index is commonly meant a measure of how strongly the sample bends light.

Drawing on the NIST ThermoML archive (doi:10.1016/j.jct.2014.05.013), this text covers mass density and refractive index for 14 compounds.

The conditions of data set [1]: 100 kPa, Liquid, Vibrating tube method.
Data set [2] in a line: wn = mass fraction of the nth substance listed. The following applies: 100 kPa, Liquid, Vibrating tube method.
Data set [3] in a line: refractive index (Na D-line) (dimensionless); wn = mass fraction of the nth substance listed. Conditions: 100 kPa, Liquid, Standard Abbe refractometry.

Molecules are shown by their SMILES. ± gives the expanded uncertainty stated by the source.

Consider `CNC=O` [N-methylformamide], for which the mass density in data set [1] (288.15 K) worked out at 1007.94 ± 1 kg/m3; in data set [1] (298.15 K), 999.25 ± 1 kg/m3; in data set [1] (308.15 K), 990.63 ± 1 kg/m3.

For the compound `CNC=O` [N-methylformamide] + O, the mass density in data set [2] (288.15 K, w1 = 0.2) is 1010.26 ± 1 kg/m3; in data set [2] (288.15 K, w1 = 0.4) it was 1019.56 ± 1 kg/m3; in data set [2] (288.15 K, w1 = 0.6) it was 1023.57 ± 1 kg/m3; in data set [2] (288.15 K, w1 = 0.8), 1019.32 ± 1 kg/m3; in data set [2] (288.15 K, w1 = 1) it was 1007.94 ± 1 kg/m3; in data set [2] (298.15 K, w1 = 0.2) it was 1006.21 ± 1 kg/m3. The mass density in data set [2] (298.15 K, w1 = 0.4) is 1013.7 ± 1 kg/m3; in data set [2] (298.15 K, w1 = 0.6), 1016.29 ± 1 kg/m3; in data set [2] (298.15 K, w1 = 0.8), 1011.11 ± 1 kg/m3; in data set [2] (298.15 K, w1 = 1) it was 999.25 ± 1 kg/m3; in data set [2] (308.15 K, w1 = 0.2), 1001.56 ± 1 kg/m3; in data set [2] (308.15 K, w1 = 0.4), 1007.51 ± 1 kg/m3. The mass density in data set [2] (308.15 K, w1 = 0.6) came to 1008.9 ± 1 kg/m3; in data set [2] (308.15 K, w1 = 0.8) it was 1003.04 ± 1 kg/m3; in data set [2] (308.15 K, w1 = 1) it was 990.63 ± 1 kg/m3.

For `[Cl-].[Cs+]` [cesium chloride] + CN(C)C=O, the refractive index is 1.43298 ± 0.00032 in data set [3] (288.15 K, w1 = 0.0005); 1.4292 ± 0.00032 in data set [3] (298.15 K, w1 = 0.0008); 1.42658 ± 0.00032 in data set [3] (308.15 K, w1 = 0.0016). Moreover, the mass density in data set [2] (288.15 K, w1 = 0.0005) came out at 961.27 ± 1 kg/m3; in data set [2] (298.15 K, w1 = 0.0008) it was 944.51 ± 1 kg/m3; in data set [2] (308.15 K, w1 = 0.0016), 937.54 ± 1 kg/m3.

As for `[Cl-].[Cs+]` [cesium chloride] + CNC=O, the refractive index turned out to be 1.43767 ± 0.00032 in data set [3] (288.15 K, w1 = 0.0585); 1.43465 ± 0.00032 in data set [3] (298.15 K, w1 = 0.0599); 1.43161 ± 0.00032 in data set [3] (308.15 K, w1 = 0.062). The mass density in data set [2] (288.15 K, w1 = 0.0585) turned out to be 1054.35 ± 1.2 kg/m3; in data set [2] (298.15 K, w1 = 0.0599), 1046.14 ± 1.2 kg/m3; in data set [2] (308.15 K, w1 = 0.062) it was 1038.58 ± 1.2 kg/m3.

Regarding `[Cl-].[Cs+]` [cesium chloride] + NC=O, the refractive index in data set [3] (288.15 K, w1 = 0.2292) turned out to be 1.46286 ± 0.00032; in data set [3] (298.15 K, w1 = 0.2331), 1.46096 ± 0.00032; in data set [3] (308.15 K, w1 = 0.2412), 1.45811 ± 0.00032. In addition, the mass density in data set [2] (288.15 K, w1 = 0.2292) came out at 1359.39 ± 1.3 kg/m3; in data set [2] (298.15 K, w1 = 0.2331), 1354.37 ± 1.3 kg/m3; in data set [2] (308.15 K, w1 = 0.2412) it was 1354.14 ± 1.3 kg/m3.

For `[Cl-].[Cs+]` [cesium chloride] + O, the refractive index is listed as 1.41803 ± 0.00032 in data set [3] (288.15 K, w1 = 0.646); 1.41971 ± 0.00032 in data set [3] (298.15 K, w1 = 0.6545); 1.42086 ± 0.00032 in data set [3] (308.15 K, w1 = 0.6666). Besides, the mass density in data set [2] (288.15 K, w1 = 0.646) is given as 1894.15 ± 1.5 kg/m3; in data set [2] (298.15 K, w1 = 0.6545), 1921.87 ± 1.5 kg/m3; in data set [2] (308.15 K, w1 = 0.6666), 1947.03 ± 1.6 kg/m3.

For the compound `CN(C)C=O` [dimethylformamide], the mass density in data set [1] (288.15 K) was found to be 953.53 ± 1 kg/m3; in data set [1] (298.15 K), 943.89 ± 1 kg/m3; in data set [1] (308.15 K), 934.39 ± 1 kg/m3.

For the compound `CN(C)C=O` [dimethylformamide] + O, the mass density in data set [2] (288.15 K, w1 = 0.2) worked out at 1000.62 ± 1 kg/m3; in data set [2] (288.15 K, w1 = 0.4) it was 1003.56 ± 1 kg/m3; in data set [2] (288.15 K, w1 = 0.6) it was 1001.34 ± 1 kg/m3; in data set [2] (288.15 K, w1 = 0.8), 986.63 ± 1 kg/m3; in data set [2] (288.15 K, w1 = 1), 953.53 ± 1 kg/m3; in data set [2] (298.15 K, w1 = 0.2), 996.32 ± 1 kg/m3. The mass density turned out to be 996.99 ± 1 kg/m3 in data set [2] (298.15 K, w1 = 0.4); 992.97 ± 1 kg/m3 in data set [2] (298.15 K, w1 = 0.6); 977.38 ± 1 kg/m3 in data set [2] (298.15 K, w1 = 0.8); 943.89 ± 1 kg/m3 in data set [2] (298.15 K, w1 = 1); 991.45 ± 1 kg/m3 in data set [2] (308.15 K, w1 = 0.2); 990 ± 1 kg/m3 in data set [2] (308.15 K, w1 = 0.4). Besides, the mass density in data set [2] (308.15 K, w1 = 0.6) is on record as 984.33 ± 1 kg/m3; in data set [2] (308.15 K, w1 = 0.8), 968.07 ± 1 kg/m3; in data set [2] (308.15 K, w1 = 1), 934.39 ± 1 kg/m3.

With `NC=O` [formamide], the results for the mass density in data set [1] (288.15 K), in data set [1] (298.15 K) and in data set [1] (308.15 K) were 1137.8 ± 1 kg/m3, 1129.18 ± 1 kg/m3 and 1120.75 ± 1 kg/m3, respectively.

With `NC=O` [formamide] + O, the mass density in data set [2] (288.15 K, w1 = 0.2) was 1030.04 ± 1 kg/m3; in data set [2] (288.15 K, w1 = 0.4), 1058.41 ± 1 kg/m3; in data set [2] (288.15 K, w1 = 0.6), 1085.67 ± 1 kg/m3; in data set [2] (288.15 K, w1 = 0.8), 1111.83 ± 1 kg/m3; in data set [2] (288.15 K, w1 = 1) it was 1137.8 ± 1 kg/m3; in data set [2] (298.15 K, w1 = 0.2), 1025.59 ± 1 kg/m3. Moreover, the mass density is reported as 1052.51 ± 1 kg/m3 in data set [2] (298.15 K, w1 = 0.4); 1078.6 ± 1 kg/m3 in data set [2] (298.15 K, w1 = 0.6); 1103.81 ± 1 kg/m3 in data set [2] (298.15 K, w1 = 0.8); 1129.18 ± 1 kg/m3 in data set [2] (298.15 K, w1 = 1); 1020.7 ± 1 kg/m3 in data set [2] (308.15 K, w1 = 0.2); 1046.35 ± 1 kg/m3 in data set [2] (308.15 K, w1 = 0.4). For the same compound, the mass density in data set [2] (308.15 K, w1 = 0.6) is recorded as 1071.43 ± 1 kg/m3; in data set [2] (308.15 K, w1 = 0.8), 1095.93 ± 1 kg/m3; in data set [2] (308.15 K, w1 = 1), 1120.75 ± 1 kg/m3.

With `O` [water], the mass density in data set [1] (288.15 K) turned out to be 999 ± 1 kg/m3.

Take `O` [water] + CN(C)C=O: in data set [2] (288.15 K, w2 = 0), the mass density worked out at 999 ± 1 kg/m3.

Take `O` [water] + CNC=O: in data set [2] (288.15 K, w2 = 0), the mass density stood at 999 ± 1 kg/m3.

Regarding `O` [water] + NC=O, the mass density in data set [2] (288.15 K, w2 = 0) was 999 ± 1 kg/m3.
